Measured values: patent US9029369B2, “Aprepitant L-proline composition and cocrystal” (Nuformix Limited, priority 2010, dated 2015)
Read-outs that look alike come from different tables or passages of the source.

What was measured:
[1] = Dissolution study, USP Apparatus 2 (paddle), distilled water containing 2.2% SDS; format: physicochemical; settings: 2.2% SDS in purified water
Description: Material providing 125 mg of aprepitant was used in each dissolution experiment and in each experiment the test sample was added directly to the dissolution media as a loose powder.
Analysis was carried out by HPLC/UV using an Agilent 1100/1200 series HPLC system with UV variable wavelength detection. Standards were prepared in acetonitrile at 0.14 mg/ml. All standard and sample solutions were filtered through 0.45 μm filters.

[2] = Stability study under accelerated conditions, 40° C./75% RH, examined by XRPD
[3] = nanoparticulate formulation (marketed capsules, oral); cited from earlier work
[4] = cited from earlier work
[5] = low solubility and low permeability API; cited from earlier work
[6] = 0 mins, 900 ml, 37.0° C., 100 rpm, material providing 125 mg aprepitant, triplicate
[7] = 180 mins (infinity time point), 37.0° C., 100 rpm

For `C[C@@H](O[C@H]1OCCN(Cc2n[nH]c(=O)[nH]2)[C@H]1c1ccc(F)cc1)c1cc(C(F)(F)F)cc(C(F)(F)F)c1.O.O=C(O)[C@@H]1CCCN1`, the mean dissolution value [1, 6] was 0.0%, the “behaviour once dissolved (re-precipitation of the API)” value ([1]; up to 180 minutes) was “remained in solution with no re-precipitation of the API” and the mean dissolution value ([1]; 1 min, 37.0° C., 100 rpm) was “more than 93%”. It also gave a mean dissolution value ([1]; 1 min, 37.0° C., 100 rpm, listed as 1:1:1 Aprepitant L-proline cocrystal) of 93.4%, a mean dissolution value ([1]; 2 mins, 37.0° C., 100 rpm) of 95.7% and a mean dissolution value ([1]; 3 mins, 37.0° C., 100 rpm) of 95.6%. It also gave a mean dissolution value ([1]; 4 mins, 37.0° C., 100 rpm) of 95.8%, a mean dissolution value ([1]; 5 mins, 37.0° C., 100 rpm) of 95.1% and a mean dissolution value ([1]; 10 mins, 37.0° C., 100 rpm) of 95.5%. The mean dissolution value ([1]; 15 mins, 37.0° C., 100 rpm) was 95.9%, the mean dissolution value ([1]; 20 mins, 37.0° C., 100 rpm) was 96.0% and the mean dissolution value ([1]; 30 mins, 37.0° C., 100 rpm) was 96.2%. It also gave a mean dissolution value ([1]; 45 mins, 37.0° C., 100 rpm) of 96.8%, a mean dissolution value ([1]; 60 mins, 37.0° C., 100 rpm) of 97.0% and a mean dissolution value [1, 7] of 99.2%. The “XRPD Characterization” value ([2]; 1 month) was “cocrystal”, the “XRPD Characterization” value ([2]; 1 week) was “cocrystal” and the “XRPD Characterization” value ([2]; 2 months) was “cocrystal”. For the same compound, the “XRPD Characterization” value ([2]; 2 week) was “cocrystal”, the “XRPD Characterization” value ([2]; 3 months) was “cocrystal” and the “XRPD Characterization” value ([2]; 3 week) was “cocrystal”. The “XRPD Characterization” value ([2]; 6 months) was “cocrystal”, the “physical stability with respect to dissociation into starting components” value ([2]; six month period) was “stable” and the “XRPD Characterization” value ([2]; time point 0) was “cocrystal”.
In the case of `C[C@@H](O[C@H]1OCCN(Cc2nc(=O)[nH][nH]2)[C@H]1c1ccc(F)cc1)c1cc(C(F)(F)F)cc(C(F)(F)F)c1` [Crystalline Aprepitant, reference compound], the mean absolute bioavailability [3] is listed as 60-65%, the mean dissolution value [1, 6] is listed as 0.0% and the “time to achieve the same level of dissolution that the cocrystal achieved within the first minute” value ([1]; 37.0° C., 100 rpm) is listed as roughly 180 min. The mean dissolution value ([1]; 1 min, 37.0° C., 100 rpm) was 18.5%, the mean dissolution value ([1]; 2 mins, 37.0° C., 100 rpm) was 34.4% and the mean dissolution value ([1]; 3 mins, 37.0° C., 100 rpm) was 44.2%. It also gave a mean dissolution value ([1]; 4 mins, 37.0° C., 100 rpm) of 52.2%, a mean dissolution value ([1]; 5 mins, 37.0° C., 100 rpm) of 57.6% and a mean dissolution value ([1]; 10 mins, 37.0° C., 100 rpm) of 70.1%. For the same compound, the mean dissolution value ([1]; 15 mins, 37.0° C., 100 rpm) was 77.2%, the mean dissolution value ([1]; 20 mins, 37.0° C., 100 rpm) was 80.4% and the mean dissolution value ([1]; 30 mins, 37.0° C., 100 rpm) was 85.4%. It also gave a mean dissolution value ([1]; 45 mins, 37.0° C., 100 rpm) of 87.3%, a mean dissolution value ([1]; 60 mins, 37.0° C., 100 rpm) of 89.3% and a mean dissolution value [1, 7] of 94.6%. For the same compound, the solubility ([4]; in acetonitrile) was “slightly soluble”, the solubility ([4]; in ethanol) was “sparingly soluble” and the solubility ([4]; in isopropyl acetate) was “sparingly soluble”. The solubility ([4]; in water) was “practically insoluble” and the BCS class [5] was “Class IV”.
